Measured values: US20240109893A1, “PREPARATION AND APPLICATION METHOD OF HETEROCYCLIC COMPOUNDS AS KRAS INHIBITOR” (SHANGHAI KECHOW PHARMA, INC., priority 2020, published 2024)

Experiments:
H358 cells = test: Cell activity experiment: activity test of H358 cells (MTT, 5 days); type: cell-based; conditions: 5 days incubation, absorbance 492 nm
How it was run: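 H358 cells seeded 90 μL at 55555 cells/mL, grown 24 h, then exposed to 3-fold serial compound dilutions (final top 10000 nM, 0.5% DMSO) in triplicate for 5 days at 37° C., 5% CO2. Viability by MTT (4 h), formazan dissolved in DMSO, absorbance at 492 nm.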

KRAS G12C-GDP = KRAS G12C-GDP (Homo sapiens (Human), UniProt P01116, G12C); test: KRAS G12C-GDP exchange test (SOS/cRAF/GTP, HTRF); type: biochemical; conditions: 1 h premix with compound, 2 h reaction with SOS, cRAF, GTP
Procedure: 2. A mixture of SOS (Pharmaron, ZZY-20190823), cRAF (Pharmaron, ZZY-20190823), GTP (Sigma, A6885-100MG), MAb Anti 6HIS-d2/MAb Anti GST-Eu (Cisbio, 61HISDLB/61GSTKLB) was added for a catalyzed reaction for 2 h.
3. The fluorescence signals of the emitted light at 615 nm and 665 nm under 320 nm excitation light were read by Biotek Microplate Reader (Synergy4).
4. The IC50 (median inhibitory concentration) of the compound was obtained by the following non-linear fitting formula: Y=Bottom+(Top−Bottom)/(1+10^((Log IC50−X)*Hill Slope)), and the data were analyzed by Graphpad 6-0 software.

Compound | IC50 (H358 cells) | IC50 (KRAS G12C-GDP) | IC50 (H358 cells; Homo sapiens, NCI-H358, 120 h)
2-((S)-1-acryloyl-4-(6-fluoro-7-(8-chloro-7- fluoronaphthalen-1-yl)-2-(((S)-1-methylpyrrolidin-2- yl))methoxy)quinazolin-4-yl)piperazin-2-yl)acetonitrile [Example 395] | 61 nM | 1.32 nM | –
C=CC(=O)N1CCN(c2nc(OC[C@@H]3CCCN3C)nc3c(F)c(-c4cccc5c4CC4CC54)ncc23)C[C@@H]1CC#N (single isomer, unassigned) [Example 873] | 12 nM | 0.79 nM | –
C=CC(=O)N1CCN(c2nc(OC[C@@H]3CCCN3C)nc3c(F)c(-c4cccc5c4CC4CC54)ccc23)C[C@@H]1CC#N (single isomer, unassigned) [Example 881] | 3.4 nM | 0.71 nM | –
C=C(F)C(=O)N1CCN(c2nc(OC[C@@H]3CCCN3C)nc3c(F)c(-c4cccc5c4CC4CC54)ccc23)C[C@@H]1CC#N (single isomer, unassigned) [Example 883] | 10.6 nM | 0.49 nM | –
C=CC(=O)N1CCN(c2nc(OC[C@@H]3CCCN3C)nc3c(F)c(-c4cccc5c4CCCC5)ncc23)C[C@@H]1CC#N [Example 1, 2-((S)-1-acryloyl-4-(8-fluoro-2-(((S)-1-methylpyrrolidin-2-yl)methoxy)-7-(5,6,7,8-tetrahydronaphthalen-1-yl)pyridino[4,3-d]pyrimidin-4-yl)piperazin-2-yl)acetonitrile] | – | 20.3 nM | 15 nM
C=C(F)C(=O)N1CCN(c2nc(OC[C@@H]3CCCN3C)nc3c(F)c(-c4cccc5ccc(F)c(Cl)c45)ccc23)C[C@@H]1CC#N [Example 913] | – | – | 3.6 nM
C=C(F)C(=O)N1CCN(c2nc(OC[C@@]34CCCN3C[C@H](F)C4)nc3c(OC4CC4)c(-c4cccc5ccc(F)c(Cl)c45)c(Cl)cc23)C[C@@H]1CC#N [Example 915, 2-((2S)-4-(6-chloro-7-(8-chloro-7-fluoronaphthalen-1-yl)-8-cyclopropoxy-2-((2R,7aS)-2-fluorotetrahydro-1H-pyrrolizin-7a(5H)-ylmethoxy)quinazolin-4-yl)-1-(2-fluoroacryloyl)piperazin-2-yl)acetonitrile] | – | – | 33 nM
C=C(F)C(=O)N1CCN(c2nc(OC[C@@]34CCCN3C[C@H](F)C4)nc3c(OC4CC4)c(-c4cccc5cccc(Cl)c45)c(Cl)cc23)C[C@@H]1CC#N [Example 916] | – | – | 37 nM

Now from value to compound:

IC50 (H358 cells) | IC50 (KRAS G12C-GDP) | IC50 (H358 cells; Homo sapiens, NCI-H358, 120 h) | Compound
– | – | 31 nM | C=CC(=O)N1CCN(c2nc(OC[C@@]34CCCN3C[C@H](F)C4)nc3c(OC4CC4)c(-c4cccc5ccc(F)c(Cl)c45)c(Cl)cc23)C[C@@H]1CC#N [Example 920, 2-((2S)-1-acryloyl-4-(6-chloro-7-(8-chloro-7-fluoronaphthalen-1-yl)-8-cyclopropoxy-2-((2R,7aS)-2-fluorotetrahydro-1H-pyrrolizin-7a(5H-yl)methoxy)quinazolin-4-yl)piperazin-2-yl)acetonitrile]
– | – | 49 nM | C=C(F)C(=O)N1CCN(c2nc(OC[C@@H]3CCCN3C)nc3c(OC4CC4)c(-c4cccc5ccc(F)c(Cl)c45)c(Cl)cc23)C[C@@H]1CC#N [Example 924]
– | – | 0.4 nM | C=C(F)C(=O)N1CCN(c2nc(OC[C@@]34CCCN3C[C@H](F)C4)nc3c(OC4CC4)c(-c4c(C)ccc5[nH]ncc45)c(Cl)cc23)C[C@@H]1CC#N [Example 932, 2-((2S)-4-(6-chloro-8-cyclopropoxy-2-((2R,7aS)-2-fluorotetrahydro-1H-pyrrolizin-7a(5H)-ylmethoxy)-7-(5-methyl-1H-indazol-4-yl)quinazolin-4-yl)-1-(2-fluoroacryloyl)piperazin-2-yl)acetonitrile]
– | – | 0.3 nM | C=CC(=O)N1CCN(c2nc(OC[C@@]34CCCN3C[C@H](F)C4)nc3c(OC4CC4)c(-c4c(C)ccc5[nH]ncc45)c(Cl)cc23)C[C@@H]1CC#N [Example 933]
– | – | 155 nM | C=C(F)C(=O)N1CCN(c2nc(OC[C@@H]3CCCN3C)nc3c(F)c(-c4cccc5c4CC4CC54)c(O)cc23)C[C@@H]1CC#N (stereo partly drawn) [Example 945]
